According to patent US20260132164A1, “PNU ANTHRACYCLINE DERIVATIVES AND METHODS OF USE THEREOF” (Merck Sharp & Dohme LLC, priority 2022, published 2026):

Tested on: BxPC3
Test: CellTiter-Glo 2.0 Cytotoxicity Assay
Format: cell-based
Settings: Homo sapiens, BXPC-3, CellTiter-Glo 2.0 luminescence; compound added day 1, read on day 4 or 5; 3000 cells/well

Compound | EC50 [nM]
COc1cccc2c1C(=O)c1c(O)c3c(c(O)c1C2=O)C[C@@](O)(C(=O)N[C@H]1CCCC[C@@H]1N)C[C@@H]3O[C@H]1C[C@H]2[C@H](O[C@@H]3[C@@H](OC)OCCN32)[C@H](C)O1 [Compound 25] | 10.5
COc1cccc2c1C(=O)c1c(O)c3c(c(O)c1C2=O)C[C@@](O)(C(=O)N1CCC2(CNC2)C1)C[C@@H]3O[C@H]1C[C@H]2[C@H](O[C@@H]3[C@@H](OC)OCCN32)[C@H](C)O1 [Compound 29] | 90
COc1cccc2c1C(=O)c1c(O)c3c(c(O)c1C2=O)C[C@@](O)(C(=O)NCCC1(N)COC1)C[C@@H]3O[C@H]1C[C@H]2[C@H](O[C@@H]3[C@@H](OC)OCCN32)[C@H](C)O1 [Compound 51] | 0.18
COc1cccc2c1C(=O)c1c(O)c3c(c(O)c1C2=O)C[C@@](O)(C(=O)NCc1cccc(N)c1)C[C@@H]3O[C@H]1C[C@H]2[C@H](O[C@@H]3[C@@H](OC)OCCN32)[C@H](C)O1 [Compound 1, (2S,4S)—N-(3-aminobenzyl)-2,5,12-trihydroxy-7-methoxy-4-(((1S,3R,4aS,9S,9aR,10aS)-9-methoxy-1-methyloctahydro-1H-pyrano[4′,3′:4,5]oxazolo[2,3-c][1,4]oxazin-3-yl)oxy)-6,11-dioxo-1,2,3,4,6,11-hexahydrotetracene-2-carboxamide] | 0.08
